Measurements: PubChem BioAssay (NCI)
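The compound was tested at five concentrations on cells cultured in 96-well plates, with a 48-hour exposure period. The concentration for full growth arrest is given as TGI.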

Key:
Test in all cases: NCI tumour cell line growth inhibition, 48 h
OVCAR-3 ovarian = system: OVCAR-3 ovarian
K-562 leukemia = system: K-562 leukemia
HCT-15 colon = system: HCT-15 colon
SW-620 colon = system: SW-620 colon
NCI-H460 lung = system: NCI-H460 lung
DU-145 prostate = system: DU-145 prostate
MDA-MB-435 = system: MDA-MB-435
A498 renal = system: A498 renal
SF-268 CNS = system: SF-268 CNS
TK-10 renal = system: TK-10 renal
HL-60(TB) leukemia = system: HL-60(TB) leukemia
HT29 colon = system: HT29 colon
786-0 renal = system: 786-0 renal
ACHN renal = system: ACHN renal
MOLT-4 leukemia = system: MOLT-4 leukemia
HCT-116 colon = system: HCT-116 colon
SF-295 CNS = system: SF-295 CNS
SK-MEL-28 melanoma = system: SK-MEL-28 melanoma
COLO 205 colon = system: COLO 205 colon
NCI-H23 lung = system: NCI-H23 lung
EKVX NSCLC = system: EKVX NSCLC
RXF 393 renal = system: RXF 393 renal
PC-3 prostate = system: PC-3 prostate
HOP-62 NSCLC = system: HOP-62 NSCLC
SR leukemia = system: SR leukemia
MALME-3M melanoma = system: MALME-3M melanoma
NCI/ADR-RES ovarian = system: NCI/ADR-RES ovarian
SK-MEL-5 melanoma = system: SK-MEL-5 melanoma
HOP-92 NSCLC = system: HOP-92 NSCLC
RPMI-8226 leukemia = system: RPMI-8226 leukemia
BT-549 breast = system: BT-549 breast
T-47D breast = system: T-47D breast
LOX IMVI melanoma = system: LOX IMVI melanoma
SF-539 CNS = system: SF-539 CNS
U251 CNS = system: U251 CNS
SNB-19 CNS = system: SNB-19 CNS
SK-MEL-2 melanoma = system: SK-MEL-2 melanoma
OVCAR-5 ovarian = system: OVCAR-5 ovarian
SK-OV-3 ovarian = system: SK-OV-3 ovarian
HCC-2998 colon = system: HCC-2998 colon
NCI-H226 lung = system: NCI-H226 lung
MDA-MB-231 breast = system: MDA-MB-231 breast
SNB-75 CNS = system: SNB-75 CNS
A549 NSCLC = system: A549 NSCLC
UO-31 renal = system: UO-31 renal
CAKI-1 renal = system: CAKI-1 renal
NCI-H522 lung = system: NCI-H522 lung
MCF7 breast = system: MCF7 breast
OVCAR-4 ovarian = system: OVCAR-4 ovarian
KM12 colon = system: KM12 colon
UACC-62 melanoma = system: UACC-62 melanoma
M14 melanoma = system: M14 melanoma
OVCAR-8 ovarian = system: OVCAR-8 ovarian
IGROV1 ovarian = system: IGROV1 ovarian
CCRF-CEM leukemia = system: CCRF-CEM leukemia
SN12C renal = system: SN12C renal
UACC-257 melanoma = system: UACC-257 melanoma

Question: Which TGI (OVCAR-3 ovarian) does the source give for `COc1ccc(C23OCC(Cc4cc(OC)c(OC)cc42)C3COC(C)=O)cc1OC` (stereo not given) here?
Answer: > 100 µM

Question: What about the TGI (K-562 leukemia) of the same compound?
Answer: > 100 µM

Question: And the TGI (HCT-15 colon)?
Answer: > 100 µM

Question: And the TGI (SW-620 colon)?
Answer: > 100 µM

Question: And the TGI (NCI-H460 lung)?
Answer: > 100 µM

Question: What about the TGI (DU-145 prostate) of the same compound?
Answer: > 100 µM

Question: And the TGI (MDA-MB-435)?
Answer: > 100 µM

Question: And the TGI (A498 renal)?
Answer: > 100 µM

Question: And the TGI (SF-268 CNS)?
Answer: > 100 µM

Question: And the TGI (TK-10 renal)?
Answer: > 100 µM

Question: What about the TGI (HL-60(TB) leukemia) of the same compound?
Answer: > 100 µM

Question: What about the TGI (HT29 colon) of the same compound?
Answer: > 100 µM

Question: And the TGI (786-0 renal)?
Answer: > 100 µM

Question: What about the TGI (ACHN renal) of the same compound?
Answer: > 100 µM

Question: And the TGI (MOLT-4 leukemia)?
Answer: > 100 µM

Question: And the TGI (HCT-116 colon)?
Answer: > 100 µM

Question: And the TGI (SF-295 CNS)?
Answer: > 100 µM

Question: And the TGI (SK-MEL-28 melanoma)?
Answer: > 100 µM

Question: And the TGI (COLO 205 colon)?
Answer: > 100 µM

Question: And the TGI (NCI-H23 lung)?
Answer: > 100 µM

Question: What about the TGI (EKVX NSCLC) of the same compound?
Answer: > 100 µM

Question: And the TGI (RXF 393 renal)?
Answer: > 100 µM

Question: What about the TGI (PC-3 prostate) of the same compound?
Answer: > 100 µM

Question: And the TGI (HOP-62 NSCLC)?
Answer: > 100 µM

Question: And the TGI (SR leukemia)?
Answer: > 100 µM

Question: What about the TGI (MALME-3M melanoma) of the same compound?
Answer: > 100 µM

Question: And the TGI (NCI/ADR-RES ovarian)?
Answer: > 100 µM

Question: What about the TGI (SK-MEL-5 melanoma) of the same compound?
Answer: > 100 µM

Question: And the TGI (HOP-92 NSCLC)?
Answer: > 100 µM

Question: What about the TGI (RPMI-8226 leukemia) of the same compound?
Answer: > 100 µM

Question: What about the TGI (BT-549 breast) of the same compound?
Answer: > 100 µM

Question: What about the TGI (T-47D breast) of the same compound?
Answer: > 100 µM

Question: What about the TGI (LOX IMVI melanoma) of the same compound?
Answer: > 100 µM

Question: And the TGI (SF-539 CNS)?
Answer: > 100 µM

Question: What about the TGI (U251 CNS) of the same compound?
Answer: > 100 µM

Question: What about the TGI (SNB-19 CNS) of the same compound?
Answer: > 100 µM

Question: What about the TGI (SK-MEL-2 melanoma) of the same compound?
Answer: > 100 µM

Question: What about the TGI (OVCAR-5 ovarian) of the same compound?
Answer: > 100 µM

Question: What about the TGI (SK-OV-3 ovarian) of the same compound?
Answer: > 100 µM

Question: What about the TGI (HCC-2998 colon) of the same compound?
Answer: > 100 µM

Question: What about the TGI (NCI-H226 lung) of the same compound?
Answer: > 100 µM

Question: What about the TGI (MDA-MB-231 breast) of the same compound?
Answer: > 100 µM

Question: What about the TGI (SNB-75 CNS) of the same compound?
Answer: > 100 µM

Question: And the TGI (A549 NSCLC)?
Answer: > 100 µM

Question: And the TGI (UO-31 renal)?
Answer: > 100 µM

Question: And the TGI (CAKI-1 renal)?
Answer: > 100 µM

Question: And the TGI (NCI-H522 lung)?
Answer: > 100 µM

Question: And the TGI (MCF7 breast)?
Answer: > 100 µM

Question: And the TGI (OVCAR-4 ovarian)?
Answer: > 100 µM

Question: And the TGI (KM12 colon)?
Answer: > 100 µM

Question: And the TGI (UACC-62 melanoma)?
Answer: > 100 µM

Question: And the TGI (M14 melanoma)?
Answer: > 100 µM

Question: Which results are given for `N#Cc1c(-c2ccc([N+](=O)[O-])cc2)cc(-c2ccc(Nc3ccnc4cc(C(F)(F)F)ccc34)cc2)[nH]c1=O`?
Answer: TGI (K-562 leukemia): > 100 µM; TGI (HCT-15 colon): > 100 µM; TGI (SW-620 colon): > 100 µM; TGI (NCI-H460 lung): > 100 µM; TGI (OVCAR-8 ovarian): > 100 µM; TGI (DU-145 prostate): > 100 µM; TGI (MDA-MB-435): > 100 µM; TGI (A498 renal): > 100 µM; TGI (SF-268 CNS): > 100 µM; TGI (TK-10 renal): > 100 µM; TGI (IGROV1 ovarian): > 100 µM; TGI (HT29 colon): > 100 µM; TGI (786-0 renal): > 100 µM; TGI (ACHN renal): > 100 µM; TGI (MOLT-4 leukemia): > 100 µM; TGI (HCT-116 colon): 66.1 µM; TGI (SF-295 CNS): > 100 µM; TGI (SK-MEL-28 melanoma): > 100 µM; TGI (COLO 205 colon): 29.1 µM; TGI (NCI-H23 lung): > 100 µM; TGI (EKVX NSCLC): > 100 µM; TGI (RXF 393 renal): > 100 µM; TGI (PC-3 prostate): > 100 µM; TGI (HOP-62 NSCLC): > 100 µM; TGI (SR leukemia): > 100 µM; TGI (MALME-3M melanoma): > 100 µM; TGI (NCI/ADR-RES ovarian): > 100 µM; TGI (SK-MEL-5 melanoma): > 100 µM; TGI (RPMI-8226 leukemia): > 100 µM; TGI (BT-549 breast): > 100 µM; TGI (CCRF-CEM leukemia): > 100 µM; TGI (T-47D breast): > 100 µM; TGI (LOX IMVI melanoma): > 100 µM; TGI (SF-539 CNS): > 100 µM; TGI (U251 CNS): 21.9 µM; TGI (SNB-19 CNS): 82.7 µM; TGI (SK-MEL-2 melanoma): > 100 µM; TGI (OVCAR-5 ovarian): 40.1 µM; TGI (SK-OV-3 ovarian): > 100 µM; TGI (HCC-2998 colon): > 100 µM; TGI (NCI-H226 lung): > 100 µM; TGI (MDA-MB-231 breast): 44.7 µM; TGI (SNB-75 CNS): > 100 µM; TGI (SN12C renal): > 100 µM; TGI (A549 NSCLC): > 100 µM; TGI (UO-31 renal): > 100 µM; TGI (CAKI-1 renal): > 100 µM; TGI (NCI-H522 lung): > 100 µM; TGI (MCF7 breast): > 100 µM; TGI (OVCAR-4 ovarian): > 100 µM; TGI (UACC-257 melanoma): > 100 µM; TGI (UACC-62 melanoma): > 100 µM; TGI (M14 melanoma): > 100 µM
